The values below come from US12539292B2, “BRM targeting compounds and associated methods of use” (Arvinas Operations, Inc., priority 2018, dated 2026).

Structures are written as SMILES. Like-named read-outs stand apart in the source and are kept apart here. Where only a bound is given, the exact number is not on record here.

In this test the target is T1, BRM (Homo sapiens, UniProt P51531).
T1 construct: In-Cell Western Screen of BRM Degradation in SW1573 Cells; endogenous in cells; host or cells: SW1573
In words: In-cell Western screen of BRM degradation in SW1573 cells (Dmax and DC50). In kind it is cell-based. In short, it runs like this: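 Overnight compound treatment (18-20 h, final DMSO 0.1%) of SW1573 cells in DMEM with 10% FBS precedes fixation and in-cell Western staining with 800/680 nm dye-labelled secondaries. Plate images give DC50 and maximal degradation.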

[1] abbreviates: BRM degradation, SW1573 cells, read-out: DC50.
The mark [2] stands for this setting: BRM degradation, SW1573 cells, tested at the top concentration of between 0.3 and 10 μM, read-out: Dmax (%) (% degraded).
The mark [3] stands for this setting: BRM degradation, SW1573 cells, Table 2D, read-out: **Dmax (%) (% degraded).
[4] abbreviates: BRM degradation, SW1573 cells, Table 2D, read-out: *DC50.
Setting [5] is: BRM degradation, SW1573 cells, read-out: Dmax (% degraded).

T1 sequence (P51531 whole entry): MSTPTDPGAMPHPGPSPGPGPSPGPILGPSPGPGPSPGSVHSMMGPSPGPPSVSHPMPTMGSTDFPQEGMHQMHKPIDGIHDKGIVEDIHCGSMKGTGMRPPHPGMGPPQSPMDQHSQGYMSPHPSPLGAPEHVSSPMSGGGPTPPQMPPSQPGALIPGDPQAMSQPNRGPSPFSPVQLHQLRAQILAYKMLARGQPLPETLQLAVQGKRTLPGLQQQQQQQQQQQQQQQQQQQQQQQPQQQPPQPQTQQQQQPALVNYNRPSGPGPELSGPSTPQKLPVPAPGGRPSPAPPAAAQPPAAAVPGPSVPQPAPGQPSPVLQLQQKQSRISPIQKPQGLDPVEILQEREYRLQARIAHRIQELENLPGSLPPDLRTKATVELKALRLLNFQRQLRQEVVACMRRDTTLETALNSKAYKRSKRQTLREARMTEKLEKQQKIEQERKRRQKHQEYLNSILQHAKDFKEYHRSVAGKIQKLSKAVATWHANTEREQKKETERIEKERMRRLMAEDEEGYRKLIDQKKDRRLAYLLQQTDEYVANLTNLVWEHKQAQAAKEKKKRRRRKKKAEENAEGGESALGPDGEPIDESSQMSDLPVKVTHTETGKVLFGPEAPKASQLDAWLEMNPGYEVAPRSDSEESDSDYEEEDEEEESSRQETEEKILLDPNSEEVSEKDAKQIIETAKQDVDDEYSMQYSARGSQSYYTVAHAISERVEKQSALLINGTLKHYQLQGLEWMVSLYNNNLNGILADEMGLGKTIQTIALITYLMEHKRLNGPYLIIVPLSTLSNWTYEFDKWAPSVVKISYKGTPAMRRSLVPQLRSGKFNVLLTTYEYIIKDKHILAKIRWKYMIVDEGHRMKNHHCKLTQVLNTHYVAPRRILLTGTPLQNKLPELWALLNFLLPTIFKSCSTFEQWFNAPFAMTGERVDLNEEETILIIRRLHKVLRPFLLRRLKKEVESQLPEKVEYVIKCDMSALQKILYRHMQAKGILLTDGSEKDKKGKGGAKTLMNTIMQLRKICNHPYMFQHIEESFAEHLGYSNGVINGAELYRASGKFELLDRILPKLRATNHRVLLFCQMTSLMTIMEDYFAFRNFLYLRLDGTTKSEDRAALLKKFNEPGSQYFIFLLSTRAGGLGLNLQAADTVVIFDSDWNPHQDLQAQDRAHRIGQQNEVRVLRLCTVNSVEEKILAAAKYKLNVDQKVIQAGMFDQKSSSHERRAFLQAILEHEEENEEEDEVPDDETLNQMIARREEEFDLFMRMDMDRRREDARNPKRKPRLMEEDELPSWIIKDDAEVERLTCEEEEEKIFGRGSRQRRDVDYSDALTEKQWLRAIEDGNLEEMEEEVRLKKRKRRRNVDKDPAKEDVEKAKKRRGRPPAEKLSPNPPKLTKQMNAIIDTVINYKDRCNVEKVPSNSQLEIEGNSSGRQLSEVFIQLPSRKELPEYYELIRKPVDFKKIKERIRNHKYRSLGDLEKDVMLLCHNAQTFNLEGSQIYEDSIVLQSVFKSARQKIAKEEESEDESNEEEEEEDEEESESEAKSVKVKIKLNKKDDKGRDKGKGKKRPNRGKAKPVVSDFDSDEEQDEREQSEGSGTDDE

As for `Cc1ncsc1-c1ccc([C@H](C)NC(=O)[C@@H]2C[C@@H](O)CN2C(=O)[C@@H](c2onc(OCCN3CCC(O[C@H]4C[C@H](Oc5cc(N6C7CCC6CN(c6cc(-c8ccccc8O)nnc6N)C7)ccn5)C4)CC3)c2F)C(C)C)cn1` [compound 270, (2S,4R)-1-((2R)-2-(3-(2-(4-((1r,3R)-3-((4-(3-(3-amino-6-(2-hydroxyphenyl)pyridazin-4-yl)-3,8-diazabicyclo[3.2.1]octan-8-yl)pyridin-2-yl)oxy)cyclobutoxy)piperidin-1-yl)ethoxy)-4-fluoroisoxazol-5-yl)-3-methylbutanoyl)-4-hydroxy-N-((S)-1-(6-(4-methylthiazol-5-yl)pyridin-3-yl)ethyl)pyrrolidine-2-carboxamide], the DC50 under setting [1] was under 2.5 nM. Also, under setting [2], the Dmax is over 75%.

Take `Cc1ncsc1-c1ccc([C@H](C)NC(=O)[C@@H]2C[C@@H](O)CN2C(=O)[C@@H](c2cc(N3CCC(CN4CCC(O[C@H]5C[C@H](N6CCOC7(CCN(c8cc(-c9ccccc9O)nnc8N)CC7)C6)C5)CC4)CC3)no2)C(C)C)cc1` [compound 618, (2S,4R)-1-((R)-2-(3-(4-((4-((1r,3r)-3-(9-(3-amino-6-(2-hydroxyphenyl)pyridazin-4-yl)-1-oxa-4,9-diazaspiro[5.5]undecan-4-yl)cyclobutoxy)piperidin-1-yl)methyl)piperidin-1-yl)isoxazol-5-yl)-3-methylbutanoyl)-4-hydroxy-N-((S)-1-(4-(4-methylthiazol-5-yl)phenyl)ethyl)pyrrolidine-2-carboxamide]: under setting [3], the Dmax is over 75%. In addition, the DC50 under setting [4] was under 2.5 nM.

On to `Cc1ncsc1-c1ccc([C@H](C)NC(=O)[C@@H]2C[C@@H](O)CN2C(=O)[C@@H](c2cc(OCCN3CCC(O[C@H]4C[C@H](Nc5cc(N6C7CCC6CN(c6cc(-c8ccccc8O)nnc6N)C7)ccn5)C4)CC3)no2)C(C)C)cc1` [compound 493, (2S,4R)-1-((2R)-2-(3-(2-(4-((1r,3R)-3-((4-(3-(3-amino-6-(2-hydroxyphenyl)pyridazin-4-yl)-3,8-diazabicyclo[3.2.1]octan-8-yl)pyridin-2-yl)amino)cyclobutoxy)piperidin-1-yl)ethoxy)isoxazol-5-yl)-3-methylbutanoyl)-4-hydroxy-N-((S)-1-(4-(4-methylthiazol-5-yl)phenyl)ethyl)pyrrolidine-2-carboxamide], for which the DC50 (BRM degradation, read-out: BRM DC50) is under 2.5 nM. The Dmax (SW1573, % degraded, when tested at the top concentration of between 0.3 and 10 μM, read-out: BRM Dmax (%)) is over 75%.

`CC[C@@H](NC(=O)[C@@H]1C[C@@H](O)CN1C(=O)[C@@H](c1cc(N2CCC(CN3CCC(O[C@H]4C[C@H](Oc5cc(N6C7CCC6CN(c6cc(-c8ccccc8O)nnc6N)C7)ccn5)C4)CC3)CC2)no1)C(C)C)c1ccc(-c2scnc2C)cc1` [compound 663, (2S,4R)-1-((2R)-2-(3-(4-((4-((1r,3r)-3-((4-(3-(3-amino-6-(2-hydroxyphenyl)pyridazin-4-yl)-3,8-diazabicyclo[3.2.1]octan-8-yl)pyridin-2-yl)oxy)cyclobutoxy)piperidin-1-yl)methyl)piperidin-1-yl)isoxazol-5-yl)-3-methylbutanoyl)-4-hydroxy-N-((R)-1-(4-(4-methylthiazol-5-yl)phenyl)propyl)pyrrolidine-2-carboxamide]: under setting [1], the 50% degradation concentration (DC50) was in the range of 2.5 to 10 nM. The maximal degradation (Dmax) under setting [5] is 50 to 75%.

For `Cc1ncsc1-c1ccc([C@@H](NC(=O)[C@@H]2C[C@@H](O)CN2C(=O)[C@@H](c2cc(OCCN3CCC(O[C@H]4C[C@H](Oc5cc(N6C7CCC6CN(c6cc(-c8ccccc8O)nnc6N)C7)ccn5)C4)CC3)no2)C(C)C)C(F)F)cc1` [compound 268, (2S,4R)-1-((2R)-2-(3-(2-(4-((1r,3R)-3-((4-(3-(3-amino-6-(2-hydroxyphenyl)pyridazin-4-yl)-3,8-diazabicyclo[3.2.1]octan-8-yl)pyridin-2-yl)oxy)cyclobutoxy)piperidin-1-yl)ethoxy)isoxazol-5-yl)-3-methylbutanoyl)-N-((R)-2,2-difluoro-1-(4-(4-methylthiazol-5-yl)phenyl)ethyl)-4-hydroxypyrrolidine-2-carboxamide], the DC50 under setting [1] was under 2.5 nM. Further, the Dmax under setting [2] is over 75%.

`Cc1ncsc1-c1ccc(CNC(=O)[C@@H]2C[C@@H](O)CN2C(=O)[C@@H](NC(=O)Cc2ccc(N3CCN(CCOCCCc4cc(N5C6CCC5CN(c5cc(-c7ccccc7O)nnc5N)C6)ccn4)CC3)nc2)C(C)(C)C)cc1` [compound 31, (2S,4R)-1-((2S)-2-(2-(6-(4-(2-(3-(4-(3-(3-amino-6-(2-hydroxyphenyl)pyridazin-4-yl)-3,8-diazabicyclo[3.2.1]octan-8-yl)pyridin-2-yl)propoxy)ethyl)piperazin-1-yl)pyridin-3-yl)acetamido)-3,3-dimethylbutanoyl)-4-hydroxy-N-(4-(4-methylthiazol-5-yl)benzyl)pyrrolidine-2-carboxamide]: the DC50 under setting [1] is 10 to 30 nM. The greatest degradation seen (Dmax) (BRM degradation, SW1573 cells, when tested at the top concentration of between 0.3 and 10 μM, read-out: Dmax (%) (% degraded)) is over 75%.

Consider `CC(C)[C@@H](C(=O)N1C[C@H](O)C[C@H]1C(=O)N[C@@H](C)c1ccc(-n2ccnc2CO)cc1)c1cc(OCC#Cc2ccc(O[C@H]3C[C@H](Oc4cc(N5C6CCC5CN(c5cc(-c7ccccc7O)nnc5N)C6)ccn4)C3)cn2)no1` [compound 285, (2S,4R)-1-((2R)-2-(3-((3-(5-((1r,3R)-3-((4-(3-(3-amino-6-(2-hydroxyphenyl)pyridazin-4-yl)-3,8-diazabicyclo[3.2.1]octan-8-yl)pyridin-2-yl)oxy)cyclobutoxy)pyridin-2-yl)prop-2-yn-1-yl)oxy)isoxazol-5-yl)-3-methylbutanoyl)-4-hydroxy-N-((S)-1-(4-(2-(hydroxymethyl)-1H-imidazol-1-yl)phenyl)ethyl)pyrrolidine-2-carboxamide], for which the DC50 under setting [1] is under 2.5 nM. Under setting [2], the Dmax is over 75%.

For the compound `Cc1ncsc1-c1ccc([C@H](C)NC(=O)[C@@H]2C[C@@H](O)CN2C(=O)[C@H](c2cc(OCCC#Cc3ccc(OC4CC(Oc5cc(N6C7CC[C@@H]6CN(c6cc(-c8ccccc8O)nnc6N)C7)ccn5)C4)cn3)no2)C(C)C)cc1` (stereo partly drawn) [compound 226, (2S,4R)-1-((2S)-2-(3-((4-(5-((1r,3r)-3-((4-(3-(3-amino-6-(2-hydroxyphenyl)pyridazin-4-yl)-3,8-diazabicyclo[3.2.1]octan-8-yl)pyridin-2-yl)oxy)cyclobutoxy)pyridin-2-yl)but-3-yn-1-yl)oxy)isoxazol-5-yl)-3-methylbutanoyl)-4-hydroxy-N-((S)-1-(4-(4-methylthiazol-5-yl)phenyl)ethyl)pyrrolidine-2-carboxamide], the DC50 under setting [1] was in the range of 10 to 30 nM. The “Dmax (%) (% degraded)” value (BRM degradation, SW1573 cells, tested at the top concentration of between 0.3 and 10 μM) is on record as “A (A > 75)”.

As for `Cc1ncsc1-c1ccc([C@H](C)NC(=O)[C@@H]2C[C@@H](O)CN2C(=O)[C@@H](c2cc(N3CCC(CN4CCC(O[C@H]5C[C@H](Oc6cc(N7C8CCC7CN(c7cc(-c9ccccc9O)nnc7N)C8)ccn6)C5)CC4)CC3)no2)C(C)C)cc1F` [compound 652, (2S,4R)-1-((2R)-2-(3-(4-((4-((1r,3r)-3-((4-(3-(3-amino-6-(2-hydroxyphenyl)pyridazin-4-yl)-3,8-diazabicyclo[3.2.1]octan-8-yl)pyridin-2-yl)oxy)cyclobutoxy)piperidin-1-yl)methyl)piperidin-1-yl)isoxazol-5-yl)-3-methylbutanoyl)-N-((S)-1-(3-fluoro-4-(4-methylthiazol-5-yl)phenyl)ethyl)-4-hydroxypyrrolidine-2-carboxamide], under setting [1], the DC50 is under 2.5 nM. Besides, under setting [5], the maximal degradation (Dmax) is over 75%.

Regarding `Cc1ncsc1-c1ccc([C@H](C)NC(=O)[C@@H]2C[C@@H](O)CN2C(=O)[C@@H](c2cc(OCC[C@@H]3CCN(C[C@H]4C[C@H](Oc5cc(N6C7CCC6CN(c6cc(-c8ccccc8O)nnc6N)C7)ccn5)C4)[C@H](C)C3)no2)C(C)C)cc1` (racemic) [compound 580, (2S,4R)-1-((2R)-2-(3-(2-((2R,4R)-1-(((1r,3R)-3-((4-(3-(3-amino-6-(2-hydroxyphenyl)pyridazin-4-yl)-3,8-diazabicyclo[3.2.1]octan-8-yl)pyridin-2-yl)oxy)cyclobutyl)methyl)-2-methylpiperidin-4-yl)ethoxy)isoxazol-5-yl)-3-methylbutanoyl)-4-hydroxy-N-((S)-1-(4-(4-methylthiazol-5-yl)phenyl)ethyl)pyrrolidine-2-carboxamide], under setting [3], the greatest degradation seen (Dmax) is over 75%. In addition, the DC50 under setting [4] was under 2.5 nM.

In the case of `C#Cc1ccc([C@H](C)NC(=O)[C@@H]2C[C@@H](O)CN2C(=O)[C@@H](c2cc(N3CCC(CN4CCC(O[C@H]5C[C@H](Oc6cc(N7C8CCC7CN(c7cc(-c9ccccc9O)nnc7N)C8)ccn6)C5)CC4)CC3)no2)C(C)C)cc1` [compound 678, (2S,4R)-1-((2R)-2-(3-(4-((4-((1r,3r)-3-((4-(3-(3-amino-6-(2-hydroxyphenyl)pyridazin-4-yl)-3,8-diazabicyclo[3.2.1]octan-8-yl)pyridin-2-yl)oxy)cyclobutoxy)piperidin-1-yl)methyl)piperidin-1-yl)isoxazol-5-yl)-3-methylbutanoyl)-N-((S)-1-(4-ethynylphenyl)ethyl)-4-hydroxypyrrolidine-2-carboxamide], the DC50 under setting [1] was under 2.5 nM. For the same compound, the Dmax under setting [5] was over 75%.
